This is an account of results in patent US9834520B2, “Heterocyclic compound” (TAKEDA PHARMACEUTICAL COMPANY LIMITED, priority 2013, dated 2017).

Test [1] concerns the target T1, RORγt (Homo sapiens, UniProt P51449).
T1 sequence (P51449 1-497 isoform P51449-2): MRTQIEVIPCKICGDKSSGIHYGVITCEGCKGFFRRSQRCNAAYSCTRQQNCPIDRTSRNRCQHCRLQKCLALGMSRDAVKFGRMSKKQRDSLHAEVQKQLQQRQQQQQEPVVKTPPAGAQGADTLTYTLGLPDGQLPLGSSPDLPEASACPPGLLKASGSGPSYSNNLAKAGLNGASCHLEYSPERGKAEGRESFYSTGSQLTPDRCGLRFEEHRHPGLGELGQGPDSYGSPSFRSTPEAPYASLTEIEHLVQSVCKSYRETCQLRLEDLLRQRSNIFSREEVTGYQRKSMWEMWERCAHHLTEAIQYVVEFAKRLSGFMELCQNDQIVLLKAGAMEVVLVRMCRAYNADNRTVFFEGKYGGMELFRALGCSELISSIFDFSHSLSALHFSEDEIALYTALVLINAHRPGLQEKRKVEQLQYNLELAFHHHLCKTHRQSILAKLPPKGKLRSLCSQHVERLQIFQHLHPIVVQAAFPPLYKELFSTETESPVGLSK
Nature of the test: Cofactor recruitment test (Alpha Screen, biotinylated SRC-1 peptide). The note with it: test compound 1 μM; for inhibition at 1 µM: read-out: signal value inhibitory rate (%). The class given is biochemical. As to the method:
Cofactor Recruitment Test
Cofactor recruitment test was performed by Alpha Screen (Histidine Detection Kit, PerkinElmer) method. First, a test compound diluted with an assay buffer (50 mM Tris-HCl (pH 7.5), 50 mM KCl, 1 mM DTT, 0.1% BSA) was added to a 384 well plate by 5 μL each. […] The mixture was stood in a dark place for 1 hr, and the signal value was measured by Envision (PerkinElmer).

Test [2] addresses T1, RORγt. Nature of the test: Jurkat reporter test (IL-17 ROR response element luciferase). The class given is cell-based. Details: expressed in transfected cells; host or cells: Jurkat cells. The following applies: test compound 3 μM, Jurkat cells; for inhibition at 3 µM: Jurkat, read-out: luminescence level inhibitory rate (%). As for the experimental part:
The Jurkat cells used for the reporter test were cultured in a culture medium (RPMI (Invitrogen), 10% FCS (AusGeneX), 100 U/mL penicillin, 100 μg/mL streptomycin). On the day of the test, 4×10^7 cells were recovered by a centrifugal operation (1000 rpm, 5 min.) and suspended in PBS (phosphate buffered saline) (Invitrogen). Thereafter, the cells were recovered again by a centrifugal operation, and suspended in 2 mL of R buffer (NEON transfection kit, Invitrogen). […] Gene transfer was performed by Electroporation apparatus (NEON, Invitrogen) under the conditions of pulse voltage 1350 V, interval 10 milliseconds, number of times 3. The cells after gene transfer were suspended in 40 mL of a reaction medium (RPMI, 10% Lipid reduced FCS (HyClone), 10 mM HEPES (pH 7.5), 100 U/mL penicillin, 100 μg/mL streptomycin, 5 μM lovastatin), and plated in a 96 well plate by 90 μL each. A test compound diluted with the reaction medium was added by 10 μL each, and the cells were cultured overnight in an incubator. Bright-Glo (Promega) was added by 100 μL each, and the mixture was stirred at room temperature for 10 min, and the luminescence level was measured by Envision (PerkinElmer).

Test [3] addresses T1, RORγt. As to the kind of experiment: RORγt binding test (TR-FRET, fluorescent-labeled cholesterol). The note with it: binding inhibitory rate of fluorescent-labeled cholesterol to RORγt at test compound 1 μM. As to the method: The binding activity of the test compound to RORγt was measured by a time resolved fluorescence resonance energy transfer method (TR-FRET) utilizing histidine-tagged RORγt, fluorescent-labeled cholesterol (BODIPY-cholesterol, AVIVA) and terbium-labeled anti-histidine tag antibody (Invitrogen). First, a test compound diluted with an assay buffer (20 mM Tris-HCl (pH 7.5), 100 mM NaCl, 1 mM DTT, 0.1% BSA) was added to a 384 well plate by 3 μL each. Then, RORγt diluted with an assay buffer to 240 nM was added by 3 μL each, after which fluorescent-labeled cholesterol diluted with the assay buffer to 12 μM was added by 3 μL each, and the mixture was stood at room temperature for 20 min. Thereafter, a terbium-labeled anti-histidine tag antibody diluted with the assay buffer to 8 nM was added by 3 μL each. The mixture was stood at room temperature for 20 min, and fluorescence intensity (excitation wavelength 320 nm, fluorescence wavelength 520 nm, delay time 100 microseconds) was measured by Envision (PerkinElmer).
For orientation: In TR-FRET formats the signal depends on donor and acceptor labels being close together.

With `CCN1Cc2cc(NC(=O)CC(C)CC(=O)Nc3ccc(C#N)c(Cl)c3)ccc2N(CC)C1=O` (centres unmarked) [Example 16, N-(3-chloro-4-cyanophenyl)-N′-(1,3-diethyl-2-oxo-1,2,3,4-tetrahydroquinazolin-6-yl)-3-methylpentanediamide], the values for the inhibition at 1 µM in test [1] and in test [3] were 104% and 92.8%, respectively. The inhibition at 3 µM in test [2] is 117%.
As to `CCn1c(=O)n(COC)c(=O)c2cc(NC(=O)CC(C)CC(=O)Nc3ccc(C#N)c(Cl)c3)ccc21` (centres unmarked) [Example 19, N-(3-chloro-4-cyanophenyl)-N′-(1-ethyl-3-(methoxymethyl)-2,4-dioxo-1,2,3,4-tetrahydroquinazolin-6-yl)-3-methylpentanediamide], the inhibition at 1 µM in test [1] was 104%; in test [3], 99.6%. The inhibition at 3 µM in test [2] is 115%.
For `CCn1c(=O)n(CCOC)c(=O)c2cc(NC(=O)CC(C)CC(=O)Nc3ccc(C#N)c(Cl)c3)ccc21` (centres unmarked) [Example 20, N-(3-chloro-4-cyanophenyl)-N′-(1-ethyl-3-(2-methoxyethyl)-2,4-dioxo-1,2,3,4-tetrahydroquinazolin-6-yl)-3-methylpentanediamide] the same measures were 105%, 101% and 116%.
As to `CCn1c(=O)n(CCCOC)c(=O)c2cc(NC(=O)CC(C)CC(=O)Nc3ccc(C#N)c(Cl)c3)ccc21` (centres unmarked) [Example 21, N-(3-chloro-4-cyanophenyl)-N′-(1-ethyl-3-(3-methoxypropyl)-2,4-dioxo-1,2,3,4-tetrahydroquinazolin-6-yl)-3-methylpentanediamide], the inhibition at 1 µM came to 104% in test [1] and 103% in test [3]. In addition, in test [2], the inhibition at 3 µM came out at 118%.
Turning to `C#CCn1c(=O)c2cc(NC(=O)CC(C)CC(=O)Nc3ccc(C#N)c(Cl)c3)ccc2n(CC)c1=O` (centres unmarked) [Example 28, N-(3-chloro-4-cyanophenyl)-N′-(1-ethyl-2,4-dioxo-3-(prop-2-yn-1-yl)-1,2,3,4-tetrahydroquinazolin-6-yl)-3-methylpentanediamide], the results for the inhibition at 1 µM in test [1] and in test [3] were 105% and 99.3%, respectively. The inhibition at 3 µM in test [2] is 115%.
On to `CCn1c(=O)n(C[Si](C)(C)C)c(=O)c2cc(NC(=O)CC(C)CC(=O)Nc3ccc(C#N)c(Cl)c3)ccc21` (centres unmarked) [Example 32, N-(3-chloro-4-cyanophenyl)-N′-(1-ethyl-2,4-dioxo-3-((trimethylsilyl)methyl)-1,2,3,4-tetrahydroquinazolin-6-yl)-3-methylpentanediamide], for which the inhibition at 1 µM amounted to 103% in test [1] and 98.5% in test [3]. For the same compound, the inhibition at 3 µM in test [2] turned out to be 114%.
For `CCn1c(=O)c2cc(C(=O)NCC(CC(=O)Nc3ccc(C#N)c(Cl)c3)C(C)C)ccc2n(CC)c1=O` (centres unmarked) [Example 35, N-(4-((3-chloro-4-cyanophenyl)amino)-2-isopropyl-4-oxobutyl)-1,3-diethyl-2,4-dioxo-1,2,3,4-tetrahydroquinazoline-6-carboxamide], the “signal value inhibitory rate (%)” value in test [1] (1 µM) came out at 105.0%. Also, the “luminescence level inhibitory rate (%)” value in test [2] (3 µM) was determined as 122.0%. In addition, the “binding inhibitory rate (%)” value in test [3] (1 µM) was 102.0%.
On to `CCn1c(=O)n(C2CC2)c(=O)c2cc(NC(=O)CC(C)CC(=O)Nc3ccc(C#N)c(Cl)c3)ccc21` (centres unmarked) [Example 60, N-(3-chloro-4-cyanophenyl)-N′-(3-cyclopropyl-1-ethyl-2,4-dioxo-1,2,3,4-tetrahydroquinazolin-6-yl)-3-methylpentanediamide], for which the inhibition at 1 µM in test [1] was 103%; in test [3], 102%. Besides, the inhibition at 3 µM in test [2] worked out at 122%.
Turning to `CCn1c(=O)n(CSC)c(=O)c2cc(NC(=O)CC(C)CC(=O)Nc3ccc(C#N)c(Cl)c3)ccc21` (centres unmarked) [Example 65, N-(3-chloro-4-cyanophenyl)-N′-(1-ethyl-3-((methylsulfanyl)methyl)-2,4-dioxo-1,2,3,4-tetrahydroquinazolin-6-yl)-3-methylpentanediamide], the inhibition at 1 µM was determined as 102% in test [1] and 100% in test [3]. The inhibition at 3 µM in test [2] was found to be 102%.
For the compound `CCn1c(=O)c2cc(NC(=O)CC(C)CC(=O)Nc3ccc(C#N)c(Cl)c3)ccc2n(CSC)c1=O` (centres unmarked) [Example 99, N-(3-chloro-4-cyanophenyl)-N′-(3-ethyl-1-((methylsulfanyl)methyl)-2,4-dioxo-1,2,3,4-tetrahydroquinazolin-6-yl)-3-methylpentanediamide], the inhibition at 1 µM amounted to 103% in test [1] and 95.6% in test [3]. For the same compound, in test [2], the inhibition at 3 µM came out at 102%.
For `CC(O)(CC(=O)Nc1ccc(C#N)c(Cl)c1)CC(=O)Nc1ccc2c(c1)c(=O)n(CC1CC1)c(=O)n2CC1CC1` (centres unmarked) [Example 102, N-(1,3-bis(cyclopropylmethyl)-2,4-dioxo-1,2,3,4-tetrahydroquinazolin-6-yl)-N′-(3-chloro-4-cyanophenyl)-3-hydroxy-3-methylpentanediamide] the same measures were 104%, 103% and 104%.
Consider `CC(CNC(=O)c1cc2c(=O)n(CC3CC3)c(=O)n(CC3CC3)c2cn1)CC(=O)Nc1ccc(C#N)c(Cl)c1` (centres unmarked) [Example 112, N-(4-((3-chloro-4-cyanophenyl)amino)-2-methyl-4-oxobutyl)-1,3-bis(cyclopropylmethyl)-2,4-dioxo-1,2,3,4-tetrahydropyrido[3,4-d]pyrimidine-6-carboxamide], for which the inhibition at 1 µM is 100% in test [1] and 96.6% in test [3]. In test [2], the inhibition at 3 µM was 97.7%.
For `CCn1c(=O)c2cc(NC(=O)CC(C)CC(=O)Nc3ccc(C#N)c(Cl)c3)ncc2n(CC)c1=O` (centres unmarked) [Example 124, N-(3-chloro-4-cyanophenyl)-N′-(1,3-diethyl-2,4-dioxo-1,2,3,4-tetrahydropyrido[3,4-d]pyrimidin-6-yl)-3-methylpentanediamide], the inhibition at 1 µM in test [1] was 101%. Further, the inhibition at 3 µM in test [2] came out at 100%.
Regarding `CC(C)n1c(=O)n(CC2CC2)c(=O)c2cc(NC(=O)CC(C)(O)CC(=O)Nc3ccc(C#N)c(Cl)c3)ccc21` (centres unmarked) [Example 142, N-(3-chloro-4-cyanophenyl)-N′-(3-(cyclopropylmethyl)-1-isopropyl-2,4-dioxo-1,2,3,4-tetrahydroquinazolin-6-yl)-3-hydroxy-3-methylpentanediamide], the inhibition at 1 µM in test [1] was found to be 103%. Also, the inhibition at 3 µM in test [2] came out at 103%.
For `CC(CC(=O)Nc1ccc(C#N)c(Cl)c1)CC(=O)Nc1ccc2c(c1)c(=O)n(CC1CC1)c(=O)n2C(C)C` (centres unmarked) [Example 144, N-(3-chloro-4-cyanophenyl)-N′-(3-(cyclopropylmethyl)-1-isopropyl-2,4-dioxo-1,2,3,4-tetrahydroquinazolin-6-yl)-3-methylpentanediamide], the inhibition at 1 µM in test [1] was found to be 102%. Moreover, in test [2], the inhibition at 3 µM was 103%.
On to `CC(CC(=O)Nc1ccc(C#N)c(Cl)c1)CC(=O)Nc1ccc2c(c1)C(=O)N(CC1CC1)C(=O)C21CCCC1` (centres unmarked) [Example 145, N-(3-chloro-4-cyanophenyl)-N′-(2′-(cyclopropylmethyl)-1′,3′-dioxo-2′,3′-dihydro-1′H-spiro[cyclopentane-1,4′-isoquinoline]-7′-yl)-3-methylpentanediamide], for which the inhibition at 1 µM in test [1] is 103%. Further, the inhibition at 3 µM in test [2] came to 103%.
